What was measured:
[1] = target: Replicase polyprotein 1ab (Severe acute respiratory syndrome coronavirus 2, UniProt P0DTD1); assay: Inhibition of full length N-terminal his6-tagged SARS-CoV-2 3CL protease using FAM-SAVLQ as substrate preincubated with compound for 30 mins followed by substrate addition and measured after 30 mins by FRET assay
[2] = Inhibition of MERS-CoV 3CLpro using SG-QXL520 as substrate preincubated with compound for 30 mins followed by susbtrate addition and measured after 30 mins by FRET assay; set-up: species or system Middle East respiratory syndrome-related coronavirus
[3] = system: SARS-CoV-2; assay: Antiviral activity against SARS CoV-2 Wuhan-Hu-1 infected in HEK293T cells incubated for 24 hrs; format: functional, organism-based; details: Severe acute respiratory syndrome coronavirus 2, Wuhan-Hu-1, HEK-293T
[4] = Cytotoxicity against cat CRFK cells incubated for 72 hrs by CytoTox 96 analysis; format: toxicity, cell-based, Felis catus

SMILES | IC50 [1] [nM] | IC50 [2] [nM] | EC50 [3] [nM] | CC50 at 72 h [4] [nM]
CC(C)C[C@H](NC(=O)OCC1CC(=O)N(CC2CCCCC2)C1)C(=O)N[C@H](C=O)C[C@@H]1CCNC1=O (stereo partly drawn) | 310 | 50 | 130 | > 50000
CC(C)C[C@H](NC(=O)OCC1CC(=O)N(Cc2cccc(C(F)(F)F)c2)C1)C(=O)N[C@H](C=O)C[C@@H]1CCNC1=O (stereo partly drawn) | 410 | 60 | – | > 50000
CC(C)C[C@H](NC(=O)OCC1CC(=O)N(Cc2ccccc2)C1)C(=O)N[C@@H](C[C@@H]1CCNC1=O)C(O)S(=O)(=O)O (stereo partly drawn) | 650 | 50 | – | > 50000
CC(C)C[C@H](NC(=O)OCC1CCN(C[C@H]2C[C@H]3C=C[C@@H]2C3)C1=O)C(=O)N[C@H](C=O)C[C@@H]1CCNC1=O (stereo partly drawn) | 460 | 80 | – | > 50000
CC(C)C[C@H](NC(=O)OCC1CC(=O)N(CC2CC3C=CC2C3)C1)C(=O)N[C@@H](C[C@@H]1CCNC1=O)C(O)S(=O)(=O)O (stereo partly drawn) | 190 | 80 | 350 | > 50000
CC(C)C[C@H](NC(=O)OCC1CCN(Cc2ccccc2)C1=O)C(=O)N[C@H](C=O)C[C@@H]1CCNC1=O (stereo partly drawn) | 790 | 60 | – | > 50000
CC(C)C[C@H](NC(=O)OCC1CCN(Cc2cccc(C(F)(F)F)c2)C1=O)C(=O)N[C@H](C=O)C[C@@H]1CCNC1=O (stereo partly drawn) | 850 | 70 | – | > 50000
CC(C)C[C@H](NC(=O)OCC1CCN(CC2CCCCC2)C1=O)C(=O)N[C@H](C=O)C[C@@H]1CCNC1=O (stereo partly drawn) | 230 | 310 | 20 | > 50000
CC(C)C[C@H](NC(=O)OC[C@@H]1CCC(=O)N1CC1CCCCC1)C(=O)N[C@H](C=O)C[C@@H]1CCNC1=O | 250 | 50 | 750 | > 50000
CC(C)C[C@H](NC(=O)OC[C@@H]1CCC(=O)N1CCC1CCCCC1)C(=O)N[C@@H](C[C@@H]1CCNC1=O)C(O)S(=O)(=O)O (stereo partly drawn) | 580 | 90 | – | > 50000
CC(C)C[C@H](NC(=O)OC[C@@H]1CCC(=O)N1Cc1ccccc1)C(=O)N[C@H](C=O)C[C@@H]1CCNC1=O | 430 | 130 | – | > 50000
CC(C)C[C@H](NC(=O)OC[C@H]1CCC(=O)N1CC1CCCCC1)C(=O)N[C@@H](C[C@@H]1CCNC1=O)C(O)S(=O)(=O)O (stereo partly drawn) | 510 | 80 | – | > 50000
CC(C)C[C@H](NC(=O)OCC1CC(=O)N(Cc2cccc(C(F)(F)F)c2)C1)C(=O)N[C@@H](C[C@@H]1CCNC1=O)C(O)S(=O)(=O)O (stereo partly drawn) | 350 | 70 | – | > 50000
CC(C)C[C@H](NC(=O)OC[C@@H]1CCC(=O)N1CC1CCC(F)(F)CC1)C(=O)N[C@H](C=O)C[C@@H]1CCNC1=O | 550 | 60 | – | > 50000
CC(C)C[C@H](NC(=O)OC[C@@H]1CCC(=O)N1Cc1cccc(C(F)(F)F)c1)C(=O)N[C@H](C=O)C[C@@H]1CCNC1=O | 740 | 50 | 560 | > 50000
CC(C)C[C@H](NC(=O)OC[C@@H]1CCC(=O)N1C[C@H]1C[C@@H]2C=C[C@H]1C2)C(=O)N[C@H](C=O)C[C@@H]1CCNC1=O | 418 | 60 | – | > 50000
CC(C)C[C@H](NC(=O)OC[C@@H]1CCC(=O)N1Cc1ccco1)C(=O)N[C@@H](C[C@@H]1CCNC1=O)C(O)S(=O)(=O)O (stereo partly drawn) | 250 | 50 | – | > 50000
CC(C)C[C@H](NC(=O)OCC1CC(=O)N(CC2CC3C=CC2C3)C1)C(=O)N[C@H](C=O)C[C@@H]1CCNC1=O (stereo partly drawn) | 190 | 80 | 280 | > 50000
CC(C)C[C@H](NC(=O)OC[C@@H]1CCC(=O)N1Cc1cccc(C(F)(F)F)c1)C(=O)N[C@@H](C[C@@H]1CCNC1=O)C(O)S(=O)(=O)O (stereo partly drawn) | 770 | 50 | 490 | > 50000
CC(C)C[C@H](NC(=O)OCC1CC(=O)N(CC2CC3CCC2C3)C1)C(=O)N[C@@H](C[C@@H]1CCNC1=O)C(O)S(=O)(=O)O (stereo partly drawn) | 170 | 70 | 80 | > 50000
CC(C)C[C@H](NC(=O)OC[C@@H]1CCC(=O)N1Cc1cccc(Cl)c1)C(=O)N[C@H](C=O)C[C@@H]1CCNC1=O | 110 | 17 | 110 | > 50000
CC(C)C[C@H](NC(=O)OCC1CC(=O)N(Cc2ccccc2)C1)C(=O)N[C@H](C=O)C[C@@H]1CCNC1=O (stereo partly drawn) | 720 | 80 | – | > 50000
CC(C)C[C@H](NC(=O)OCC1CC(=O)N(CC2CCCCC2)C1)C(=O)N[C@@H](C[C@@H]1CCNC1=O)C(O)S(=O)(=O)O (stereo partly drawn) | 370 | 50 | 150 | > 50000

SMILES | IC50 [1] [nM] | IC50 [2] [nM] | EC50 [3] [nM] | CC50 at 72 h [4] [nM]
CC(C)C[C@H](NC(=O)OCC1CCN(C[C@H]2C[C@H]3C=C[C@@H]2C3)C1=O)C(=O)N[C@@H](C[C@@H]1CCNC1=O)C(O)S(=O)(=O)O (stereo partly drawn) | 550 | 150 | – | > 50000
CC(C)C[C@H](NC(=O)OCC1CCN(C[C@H]2C[C@H]3CC[C@@H]2C3)C1=O)C(=O)N[C@@H](C[C@@H]1CCNC1=O)C(O)S(=O)(=O)O (stereo partly drawn) | 510 | 130 | – | > 50000
CC(C)C[C@H](NC(=O)OC[C@@H]1CCC(=O)N1CC1CCC(F)(F)CC1)C(=O)N[C@@H](C[C@@H]1CCNC1=O)C(O)S(=O)(=O)O (stereo partly drawn) | 540 | 60 | – | > 50000
CC(C)C[C@H](NC(=O)OCC1CCN(Cc2cccc(C(F)(F)F)c2)C1=O)C(=O)N[C@@H](C[C@@H]1CCNC1=O)C(O)S(=O)(=O)O (stereo partly drawn) | 880 | 60 | – | > 50000
CC(C)C[C@H](NC(=O)OC[C@@H]1CCC(=O)N1Cc1ccco1)C(=O)N[C@H](C=O)C[C@@H]1CCNC1=O | 330 | 60 | – | > 50000
CC(C)C[C@H](NC(=O)OC[C@@H]1CCC(=O)N1Cc1cccc(F)c1)C(=O)N[C@@H](C[C@@H]1CCNC1=O)C(O)S(=O)(=O)O (stereo partly drawn) | 160 | 240 | 40 | > 50000
CC(C)C[C@H](NC(=O)OC[C@@H]1CCC(=O)N1Cc1ccccc1)C(=O)N[C@@H](C[C@@H]1CCNC1=O)C(O)S(=O)(=O)O (stereo partly drawn) | 490 | 90 | – | > 50000
CC(C)C[C@H](NC(=O)OC[C@@H]1CCC(=O)N1CCc1ccccc1)C(=O)N[C@@H](C[C@@H]1CCNC1=O)C(O)S(=O)(=O)O (stereo partly drawn) | 550 | 160 | – | > 50000
CC(C)C[C@H](NC(=O)OC[C@@H]1CCC(=O)N1CC1CCCCC1)C(=O)N[C@@H](C[C@@H]1CCNC1=O)C(O)S(=O)(=O)O (stereo partly drawn) | 280 | 60 | 790 | > 50000
CC(C)C[C@H](NC(=O)OC[C@@H]1CCC(=O)N1CCc1ccccc1)C(=O)N[C@H](C=O)C[C@@H]1CCNC1=O | 730 | 140 | – | > 50000
CC(C)C[C@H](NC(=O)OC[C@@H]1CCC(=O)N1Cc1cccc(Cl)c1)C(=O)N[C@@H](C[C@@H]1CCNC1=O)C(O)S(=O)(=O)O (stereo partly drawn) | 100 | 18 | 120 | > 50000
CC(C)C[C@H](NC(=O)OCC1CC(=O)N(Cc2ccco2)C1)C(=O)N[C@H](C=O)C[C@@H]1CCNC1=O (stereo partly drawn) | 550 | 70 | – | > 50000
CC(C)C[C@H](NC(=O)OC[C@@H]1CCC(=O)N1C[C@H]1C[C@@H]2CC[C@H]1C2)C(=O)N[C@@H](C[C@@H]1CCNC1=O)C(O)S(=O)(=O)O (stereo partly drawn) | 410 | 60 | – | > 50000
CC(C)C[C@H](NC(=O)OC[C@@H]1CCC(=O)N1C[C@H]1C[C@@H]2C=C[C@H]1C2)C(=O)N[C@@H](C[C@@H]1CCNC1=O)C(O)S(=O)(=O)O (stereo partly drawn) | 450 | 60 | – | > 50000
CC(C)C[C@H](NC(=O)OCC1CCN(Cc2ccco2)C1=O)C(=O)N[C@@H](C[C@@H]1CCNC1=O)C(O)S(=O)(=O)O (stereo partly drawn) | 2010 | 150 | – | > 50000
CC(C)C[C@H](NC(=O)OC[C@@H]1CCC(=O)N1C[C@H]1C[C@@H]2CC[C@H]1C2)C(=O)N[C@H](C=O)C[C@@H]1CCNC1=O | 500 | 70 | – | > 50000
CC(C)C[C@H](NC(=O)OC[C@H]1CCC(=O)N1CC1CCCCC1)C(=O)N[C@H](C=O)C[C@@H]1CCNC1=O | 500 | 70 | – | > 50000
CC(C)C[C@H](NC(=O)OC[C@@H]1CCC(=O)N1CCC1CCCCC1)C(=O)N[C@H](C=O)C[C@@H]1CCNC1=O | 500 | 90 | – | > 50000
CC(C)C[C@H](NC(=O)OCC1CCN(Cc2ccccc2)C1=O)C(=O)N[C@@H](C[C@@H]1CCNC1=O)C(O)S(=O)(=O)O (stereo partly drawn) | 820 | 60 | – | > 50000
CC(C)C[C@H](NC(=O)OCC1CC(=O)N(Cc2ccco2)C1)C(=O)N[C@@H](C[C@@H]1CCNC1=O)C(O)S(=O)(=O)O (stereo partly drawn) | 560 | 80 | – | > 50000
CC(C)C[C@H](NC(=O)OCC1CCN(Cc2ccco2)C1=O)C(=O)N[C@H](C=O)C[C@@H]1CCNC1=O (stereo partly drawn) | 1960 | 130 | – | > 50000
CC(C)C[C@H](NC(=O)OCC1CCN(C[C@H]2C[C@H]3CC[C@@H]2C3)C1=O)C(=O)N[C@H](C=O)C[C@@H]1CCNC1=O (stereo partly drawn) | 430 | 90 | – | > 50000

Source: ChEMBL document CHEMBL5523732, “Structure-Guided Design of Potent Coronavirus Inhibitors with a 2-Pyrrolidone Scaffold: Biochemical, Crystallographic, and Virological Studies” (J Med Chem, 2024)
